Each structure is given as a SMILES string. Bounds are passed on as bounds.

One assay deals with H2009. Nature of the assay: Cell viability dose-response, H2009. Type of assay: cell-based, human. Particulars: Homo sapiens, NCI-H2009, Table 8; 12-point dose-response starting at 50 micromolar. Here is the method:
(§1) FIG. 6A. […] Cell viability is plotted vs. compound concentration. Compound was added to cells plated at 15% confluence in 96-well plates in RPMI-1640 media supplemented with 5% Fetal Bovine Serum and 2 mM L-Glutamine. After 4 days of incubation, ATP levels were measured using Cell Titer Glo (Promega). Data are presented as the average of 2 replicates ±SEM.
(§2) Selectivity may be measured by the half maximal inhibitory concentration (IC50), which, as used herein, is a measure of the effectiveness of a compound in killing cells. This quantitative measure indicates how much of a particular compound is needed to kill a particular cell population by half (e.g., as indicated by the amount of ATP). […] The IC50 can be determined by constructing a dose-response curve. The lower the IC50, the higher the potency, and the greater the difference between IC50 values for different cell lines (e.g., sensitive lines vs. insensitive lines, and sensitive lines vs. normal lines) the greater the selectivity. […]
(§3) With this information, we synthesized and tested a series of small molecules derived in conception from the oxalamide and chromone scaffold including N-acyl ureas, as shown in Tables 6-8. Each compound was tested in a 12-point dose-response study starting at 50 micromolar and decreasing in 3-fold increments to sub-nanomolar concentrations, in duplicate. Additionally, one or more additional cell line was tested in the same way.
`O=c1c(Oc2ccccc2)coc2cc(OCc3cnn(-c4ccccc4)c3)ccc12` [SW 208586-1]: the concentration at half-maximal activity (AC50) (in general, the concentration at which the activity in the assay is half-maximal) was found to be 49.5 µM.

For the compound `Cc1oc2cc(OCc3cnn(-c4ccccc4)c3)ccc2c(=O)c1Oc1ccccc1F` [SW 208587-1], half-maximal activity (AC50) was put at 16.5 µM.

Take `O=c1c(Oc2ccccc2Cl)coc2cc(OCc3cnn(-c4ccccc4)c3)ccc12` [SW 208589-1]: the activity was half-maximal at 4.76 µM (AC50).

In turn, `O=c1c(Oc2ccc(F)cc2)coc2cc(OCc3cnn(-c4ccccc4)c3)ccc12` [SW 208591-1] registered an AC50 of 16 µM.

`Cc1ccccc1Oc1coc2cc(OCc3cnn(-c4ccccc4)c3)ccc2c1=O` [SW 208593-1] had an AC50 of over 15 µM.

Compound `O=c1c(Oc2cccc(Cl)c2)coc2cc(OCc3cnn(-c4ccccc4)c3)ccc12` [SW 208594-1] yielded an AC50 of 16.5 µM.

Regarding `Cc1cccc(Oc2coc3cc(OCc4cnn(-c5ccccc5)c4)ccc3c2=O)c1` [SW 208595-1], the activity was half-maximal at 16.5 µM (AC50).

The same assay, now with this note: Homo sapiens, NCI-H2009; 12-point dose-response starting at 50 micromolar, 3-fold increments, in duplicate; read-out: toxicity data, H2009.
Consider `Cc1ccccc1C(=O)c1ccc(C(=O)NC(=O)NCCc2ccc(O)cc2)cc1` [SW208581-1-A], for which the IC50 amounted to 0.51 µM.

As to `Cc1cccc(C(=O)c2ccc(C(=O)NC(=O)NCCc3ccc(O)cc3)cc2)c1` [SW208582-1-A], the IC50 was determined as 0.5 µM.

Turning to `COc1ccc(CC(=O)Nc2ccc(C(=O)c3ccccc3)cc2)cc1` [SW208583-1-A], the IC50 is at least 49.5 µM.

The same assay, now with this note: Homo sapiens, NCI-H2009; Tables 3 and 4; read-out: IC50 (uM) vs indicated non-small cell lung cancer cell line H2009.
`O=C(Nc1nc2ccccc2s1)c1ccc(C(=O)c2ccccc2)cc1` [SW208652-1]: the IC50 came to 2.42 µM.

As for `O=C(Nc1nc2ccccc2[nH]1)c1ccc(C(=O)c2ccccc2)cc1` [SW208653-1], the IC50 was 1.8 µM.

Turning to `Cn1c(NC(=O)c2ccc(C(=O)c3ccccc3)cc2)nc2ccccc21` [SW208770-1], the IC50 turned out to be 3.06 µM.

In the case of `O=C(Nc1nccs1)c1ccc(C(=O)c2ccccc2)cc1` [SW208771-1], the IC50 turned out to be 49.5 µM.

Regarding `O=C(Nc1ncc(Cc2ccccc2)s1)c1ccc(C(=O)c2ccccc2)cc1` [SW208834], the IC50 worked out at 16.5 µM.

For the compound `O=C(Nc1ncc(-c2ccccc2)s1)c1ccc(C(=O)c2ccccc2)cc1` [SW209017], the IC50 came out at 4.95 µM.

Take `O=C(Nc1nc(-c2ccccc2)cs1)c1ccc(C(=O)c2ccccc2)cc1` [SW209018]: the IC50 came to 14.8 µM.

Consider `O=C(Nc1nc2ccc(OCCCBr)cc2s1)c1ccc(C(=O)c2ccccc2)cc1` [SW 208235], for which the IC50 turned out to be 49.5 µM.

`O=C(Nc1nc2ccc(OCCCCBr)cc2s1)c1ccc(C(=O)c2ccccc2)cc1` [SW 208236]: the IC50 came out at 49.5 µM.

With `COc1cc2sc(NC(=O)c3ccc(C(=O)c4ccccc4)cc3)nc2cc1Br` [SW 208237], the IC50 was 6.9 µM.

The next assay has as its system H2122. Nature of the assay: Cell viability dose-response, H2122. The format is cell-based, human. As to conditions: Homo sapiens, NCI-H2122, 12-point dose-response starting at 50 micromolar, 3-fold increments, in duplicate; read-out: toxicity data, H2122. The method in brief:
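Cells plated at 15% confluence in RPMI-1640 with 5% FBS and 2 mM L-glutamine, treated with compound in a 12-point, 3-fold dilution series from 50 micromolar, in duplicate. ATP measured by Cell Titer Glo after 4 days; IC50 taken from the dose-response curve.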
On to `Cc1ccccc1C(=O)c1ccc(C(=O)NC(=O)NCCc2ccc(O)cc2)cc1` [SW208581-1-A], for which the IC50 was found to be 1.52 µM.

As to `Cc1cccc(C(=O)c2ccc(C(=O)NC(=O)NCCc3ccc(O)cc3)cc2)c1` [SW208582-1-A], the IC50 came out at 2.73 µM.

As for `COc1ccc(CC(=O)Nc2ccc(C(=O)c3ccccc3)cc2)cc1` [SW208583-1-A], the IC50 came to 3.4 µM.

The assay is the same for the next values; noted with them: Homo sapiens, NCI-H2122, Table 8; 12-point dose-response starting at 50 micromolar.
The compound `O=c1c(Oc2ccccc2)coc2cc(OCc3cnn(-c4ccccc4)c3)ccc12` [SW 208586-1] registered an AC50 of 0.11 µM.

`Cc1oc2cc(OCc3cnn(-c4ccccc4)c3)ccc2c(=O)c1Oc1ccccc1F` [SW 208587-1] returned a concentration at half-maximal activity (AC50) of 0.39 µM.

As for `O=c1c(Oc2ccccc2Cl)coc2cc(OCc3cnn(-c4ccccc4)c3)ccc12` [SW 208589-1], the AC50 worked out at 0.12 µM.

Compound `O=c1c(Oc2ccc(F)cc2)coc2cc(OCc3cnn(-c4ccccc4)c3)ccc12` [SW 208591-1] gave a concentration at half-maximal activity (AC50) of 0.15 µM.

The compound `Cc1ccccc1Oc1coc2cc(OCc3cnn(-c4ccccc4)c3)ccc2c1=O` [SW 208593-1] showed a concentration at half-maximal activity (AC50) of 0.11 µM.

`O=c1c(Oc2cccc(Cl)c2)coc2cc(OCc3cnn(-c4ccccc4)c3)ccc12` [SW 208594-1]: the activity was half-maximal at 0.22 µM (AC50).

For `Cc1cccc(Oc2coc3cc(OCc4cnn(-c5ccccc5)c4)ccc3c2=O)c1` [SW 208595-1], the AC50 was found to be 0.2 µM.

Still in this assay, the particulars now being: Homo sapiens, NCI-H2122, Table 9, competitor; read-out: IC50 to H2122 cells.
As to `Cc1cccc(C(=O)c2ccc(C(=O)NC(=O)NCCc3ccc(O)cc3)cc2)c1` [SW208582-1-A], the IC50 is 0.8 µM.

As for `O=C(Nc1nc2ccccc2s1)c1ccc(C(=O)c2ccccc2)cc1` [SW208652-1], the IC50 turned out to be 0.00644 µM.

As for `O=C(Nc1nc2ccccc2[nH]1)c1ccc(C(=O)c2ccccc2)cc1` [SW208653-1], the IC50 worked out at 0.0383 µM.

The assay is the same for the next values; noted with them: Homo sapiens, NCI-H2122, Tables 3 and 4; read-out: IC50 (uM) vs indicated non-small cell lung cancer cell line H2122.
Consider `O=C(Nc1nc2ccccc2s1)c1ccc(C(=O)c2ccccc2)cc1` [SW208652-1], for which the IC50 turned out to be 0.009 µM.

For the compound `O=C(Nc1nc2ccccc2[nH]1)c1ccc(C(=O)c2ccccc2)cc1` [SW208653-1], the IC50 turned out to be 0.042 µM.

Consider `Cn1c(NC(=O)c2ccc(C(=O)c3ccccc3)cc2)nc2ccccc21` [SW208770-1], for which the IC50 turned out to be 31.4 µM.

For the compound `O=C(Nc1nccs1)c1ccc(C(=O)c2ccccc2)cc1` [SW208771-1], the IC50 stood at 32.9 µM.

Regarding `O=C(Nc1ncc(Cc2ccccc2)s1)c1ccc(C(=O)c2ccccc2)cc1` [SW208834], the IC50 came out at 3.55 µM.

With `O=C(Nc1ncc(-c2ccccc2)s1)c1ccc(C(=O)c2ccccc2)cc1` [SW209017], the IC50 was determined as 5.76 µM.

Regarding `O=C(Nc1nc(-c2ccccc2)cs1)c1ccc(C(=O)c2ccccc2)cc1` [SW209018], the IC50 was found to be 4.73 µM.

Turning to `O=C(Nc1nc2ccc(OCCCBr)cc2s1)c1ccc(C(=O)c2ccccc2)cc1` [SW 208235], the IC50 was at least 49.5 µM.

Regarding `O=C(Nc1nc2ccc(OCCCCBr)cc2s1)c1ccc(C(=O)c2ccccc2)cc1` [SW 208236], the IC50 is at least 49.5 µM.

In the case of `COc1cc2sc(NC(=O)c3ccc(C(=O)c4ccccc4)cc3)nc2cc1Br` [SW 208237], the IC50 was determined as 0.61 µM.

Another assay relates to HCC44. Nature of the assay: Cell viability dose-response, HCC44. Type of assay: cell-based, human. Particulars: Homo sapiens, HCC44, 12-point dose-response starting at 50 micromolar, 3-fold increments, in duplicate; read-out: toxicity data, HCC44. The protocol:
as §1, §2, §3
As for `Cc1ccccc1C(=O)c1ccc(C(=O)NC(=O)NCCc2ccc(O)cc2)cc1` [SW208581-1-A], the IC50 amounted to 0.87 µM.

As to `Cc1cccc(C(=O)c2ccc(C(=O)NC(=O)NCCc3ccc(O)cc3)cc2)c1` [SW208582-1-A], the IC50 was found to be 1.53 µM.

Consider `COc1ccc(CC(=O)Nc2ccc(C(=O)c3ccccc3)cc2)cc1` [SW208583-1-A], for which the IC50 was 4.3 µM.

The same assay, now with this note: Homo sapiens, HCC44, Table 8; 12-point dose-response starting at 50 micromolar.
The compound `O=c1c(Oc2ccccc2)coc2cc(OCc3cnn(-c4ccccc4)c3)ccc12` [SW 208586-1] came in with an AC50 of 0.15 µM.

`Cc1oc2cc(OCc3cnn(-c4ccccc4)c3)ccc2c(=O)c1Oc1ccccc1F` [SW 208587-1] yielded a concentration at half-maximal activity (AC50) of 49.5 µM.

Consider `O=c1c(Oc2ccccc2Cl)coc2cc(OCc3cnn(-c4ccccc4)c3)ccc12` [SW 208589-1], for which the concentration at half-maximal activity (AC50) is 49.5 µM.

`O=c1c(Oc2ccc(F)cc2)coc2cc(OCc3cnn(-c4ccccc4)c3)ccc12` [SW 208591-1] showed an AC50 of 0.07 µM.

Consider `Cc1ccccc1Oc1coc2cc(OCc3cnn(-c4ccccc4)c3)ccc2c1=O` [SW 208593-1], for which the half-maximal activity concentration (AC50) was over 15 µM.

`O=c1c(Oc2cccc(Cl)c2)coc2cc(OCc3cnn(-c4ccccc4)c3)ccc12` [SW 208594-1]: the AC50 is 0.08 µM.

As to `Cc1cccc(Oc2coc3cc(OCc4cnn(-c5ccccc5)c4)ccc3c2=O)c1` [SW 208595-1], the activity was half-maximal at 0.1 µM (AC50).

Staying with this assay, now noted: Homo sapiens, HCC44, Tables 3 and 4; read-out: IC50 (uM) vs indicated non-small cell lung cancer cell line HCC44.
On to `O=C(Nc1nc2ccccc2s1)c1ccc(C(=O)c2ccccc2)cc1` [SW208652-1], for which the IC50 was 0.025 µM.

`O=C(Nc1nc2ccccc2[nH]1)c1ccc(C(=O)c2ccccc2)cc1` [SW208653-1]: the IC50 was 3.63 µM.

Regarding `Cn1c(NC(=O)c2ccc(C(=O)c3ccccc3)cc2)nc2ccccc21` [SW208770-1], the IC50 is 12.7 µM.

Turning to `O=C(Nc1nccs1)c1ccc(C(=O)c2ccccc2)cc1` [SW208771-1], the IC50 was determined as 8.43 µM.

With `O=C(Nc1ncc(Cc2ccccc2)s1)c1ccc(C(=O)c2ccccc2)cc1` [SW208834], the IC50 was 49.5 µM.

On to `O=C(Nc1ncc(-c2ccccc2)s1)c1ccc(C(=O)c2ccccc2)cc1` [SW209017], for which the IC50 stood at 49.5 µM.

For the compound `O=C(Nc1nc(-c2ccccc2)cs1)c1ccc(C(=O)c2ccccc2)cc1` [SW209018], the IC50 amounted to 49.5 µM.

As for `O=C(Nc1nc2ccc(OCCCBr)cc2s1)c1ccc(C(=O)c2ccccc2)cc1` [SW 208235], the IC50 is 49.5 µM.

Consider `O=C(Nc1nc2ccc(OCCCCBr)cc2s1)c1ccc(C(=O)c2ccccc2)cc1` [SW 208236], for which the IC50 turned out to be 49.5 µM.

`COc1cc2sc(NC(=O)c3ccc(C(=O)c4ccccc4)cc3)nc2cc1Br` [SW 208237]: the IC50 is 6.5 µM.

The record behind these values is patent US9789096B2, “Methods and compositions for selective and targeted cancer therapy” (Board of Regents of the University of Texas System, priority 2013, dated 2017).
